Experimental data from patent publication US8426587B2, “Haloallylamine inhibitors of SSAO/VAP-1 and uses therefor” (Pharmaxis Ltd., priority 2007, dated 2013).
Counter-ions that a name gives are not always drawn.

target: T1, SSAO/VAP-1 (Mus musculus, UniProt O70423); assay: In vivo inhibition of SSAO/VAP-1 activity in mouse genital fat; design: species or system BALB/C mice; settings: ip, female BALB/C mice, intraperitoneal, genital fat SSAO activity two hours after administration, read-out: Female Mice ED50 [ip]
T1 construct: the genital fat was excised and frozen; The tissue was homogenized; from tissue; host or cells: genital fat of BALB/C mice
T1 sequence (O70423 1-765): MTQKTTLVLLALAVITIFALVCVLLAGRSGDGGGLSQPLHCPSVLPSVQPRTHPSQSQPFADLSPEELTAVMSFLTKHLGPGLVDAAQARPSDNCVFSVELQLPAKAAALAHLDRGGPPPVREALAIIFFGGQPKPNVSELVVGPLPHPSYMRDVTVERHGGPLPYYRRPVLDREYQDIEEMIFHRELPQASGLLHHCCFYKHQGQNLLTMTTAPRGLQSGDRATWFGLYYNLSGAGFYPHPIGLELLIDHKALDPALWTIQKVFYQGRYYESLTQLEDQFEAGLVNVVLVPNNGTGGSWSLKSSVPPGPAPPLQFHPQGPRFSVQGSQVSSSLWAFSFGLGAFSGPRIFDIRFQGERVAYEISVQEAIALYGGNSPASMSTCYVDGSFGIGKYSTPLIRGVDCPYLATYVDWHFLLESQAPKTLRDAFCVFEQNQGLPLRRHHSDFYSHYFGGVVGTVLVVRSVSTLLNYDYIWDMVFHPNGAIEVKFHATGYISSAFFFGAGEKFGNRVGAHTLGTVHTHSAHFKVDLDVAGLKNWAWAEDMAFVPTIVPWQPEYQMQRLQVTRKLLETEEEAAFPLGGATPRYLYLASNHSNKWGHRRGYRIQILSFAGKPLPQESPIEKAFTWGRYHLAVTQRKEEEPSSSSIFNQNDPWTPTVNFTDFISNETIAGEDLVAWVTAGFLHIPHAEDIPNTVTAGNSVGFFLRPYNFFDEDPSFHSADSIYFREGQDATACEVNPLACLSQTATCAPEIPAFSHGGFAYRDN
Method: In vivo inhibition was assessed in mouse genital fat, a tissue with high SSAO/VAP-1 expression. 10 BALB/C mice (5 males and 5 females) were administered 0 mg/kg, 10 mg/kg, 30 mg/kg or 100 mg/kg SSAO/VAP-1 inhibitor by intraperitoneal injection. Two hours after administration the mice were sacrificed and the genital fat was excised and frozen. The tissue was homogenized in 0.01 M sodium phosphate buffer pH 7.4 (10 mL/g) and used to measure SSAO activity using Amplex® Red. ED50 was estimated Using Graphpad Prism software.

Structure (SMILES)	ED50
CC(C)S(=O)(=O)c1ccc(OC/C(F)=C\CN)cc1.Cl [(E)-3-Fluoro-4-(4-(isopropylsulfonyl)phenoxy)but-2-en-1-amine hydrochloride]	< 150 mg/kg
Cl.NC/C=C(/F)COc1ccc(C(=O)NC2CCCC2)cc1 [(E)-4-(4-Amino-2-fluorobut-2-enyloxy)-N-cyclopentylbenzamide hydrochloride]	< 50 mg/kg
Cl.NC/C=C(/F)COc1ccc(S(=O)(=O)Cc2ccccc2)cc1 [(E)-4-(4-(Benzylsulfonyl)phenoxy)-3-fluorobut-2-en-1-amine hydrochloride]	< 300 mg/kg

same assay, conditions: ip, male BALB/C mice, intraperitoneal, genital fat SSAO activity two hours after administration, read-out: Male Mice ED50 [ip]

Structure (SMILES)	ED50
CC(C)S(=O)(=O)c1ccc(OC/C(F)=C\CN)cc1.Cl [(E)-3-Fluoro-4-(4-(isopropylsulfonyl)phenoxy)but-2-en-1-amine hydrochloride]	< 150 mg/kg
Cl.NC/C=C(/F)COc1ccc(C(=O)NC2CCCC2)cc1 [(E)-4-(4-Amino-2-fluorobut-2-enyloxy)-N-cyclopentylbenzamide hydrochloride]	< 50 mg/kg
Cl.NC/C=C(/F)COc1ccc(S(=O)(=O)Cc2ccccc2)cc1 [(E)-4-(4-(Benzylsulfonyl)phenoxy)-3-fluorobut-2-en-1-amine hydrochloride]	< 50 mg/kg

same assay, conditions: ip, read-out: Female Mice ED50 [ip]

Structure (SMILES)	ED50
C[C@@H](NC(=O)c1ccc(OC/C(F)=C\CN)cc1)c1ccccc1.Cl [R-(E)-4-(4-Amino-2-fluorobut-2-enyloxy)-N-(1-phenylethyl)benzamide hydrochloride]	< 150 mg/kg
C[C@H](NC(=O)c1ccc(OC/C(F)=C\CN)cc1)c1ccccc1.Cl [S-(E)-4-(4-Amino-2-fluorobut-2-enyloxy)-N-(1-phenylethyl)benzamide hydrochloride]	< 50 mg/kg

same assay, conditions: ip, read-out: Male Mice ED50 [ip]

Structure (SMILES)	ED50
C[C@@H](NC(=O)c1ccc(OC/C(F)=C\CN)cc1)c1ccccc1.Cl [R-(E)-4-(4-Amino-2-fluorobut-2-enyloxy)-N-(1-phenylethyl)benzamide hydrochloride]	< 50 mg/kg
C[C@H](NC(=O)c1ccc(OC/C(F)=C\CN)cc1)c1ccccc1.Cl [S-(E)-4-(4-Amino-2-fluorobut-2-enyloxy)-N-(1-phenylethyl)benzamide hydrochloride]	< 50 mg/kg

target: T2, Human MAO-B (Homo sapiens, UniProt P27338); assay: Inhibition of recombinant MAO-B (Amplex Red); format: biochemical; settings: 30 min at 37° C. preincubation, 50 μM benzylamine
T2 sequence (P27338 1-520): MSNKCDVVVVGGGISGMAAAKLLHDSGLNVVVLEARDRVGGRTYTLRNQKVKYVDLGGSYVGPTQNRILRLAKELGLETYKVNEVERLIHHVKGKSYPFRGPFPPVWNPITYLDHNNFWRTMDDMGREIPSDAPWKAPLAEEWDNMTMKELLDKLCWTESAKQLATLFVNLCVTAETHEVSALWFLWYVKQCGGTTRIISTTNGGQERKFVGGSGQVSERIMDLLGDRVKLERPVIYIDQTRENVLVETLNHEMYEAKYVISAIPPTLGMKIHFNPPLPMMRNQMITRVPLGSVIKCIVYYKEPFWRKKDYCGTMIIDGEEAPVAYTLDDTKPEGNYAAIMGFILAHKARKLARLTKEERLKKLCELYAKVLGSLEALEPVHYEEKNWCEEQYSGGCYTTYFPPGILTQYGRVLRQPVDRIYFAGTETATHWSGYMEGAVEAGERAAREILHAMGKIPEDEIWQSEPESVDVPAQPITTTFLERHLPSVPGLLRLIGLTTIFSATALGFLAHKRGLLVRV
Method: Recombinant MAO-B was incubated in 0.1 M sodium phosphate buffer pH 7.4 with varying concentration of test compounds for 30 min at 37° C. The homogenate/protein was then incubated at 37° C. with […] Amplex® Red, 0.75 U/ml HRP and 40 μM benzylamine (mouse SSAO), 300 μM benzylamine (human SSAO), 100 μM tyramine (MAO-A) or 50 μM benzylamine (MAO-B) and the formation of resorufin was measured (excitation range 530-560 nm and emission at 590 nm) every 5 min in either a Tecan Infinite 200 or a BMG Fluorostar Optima platereader. IC50 were estimated using Graphpad Prism software.

Structure (SMILES)	IC50
CC(C)N(C(=O)c1ccc(OC/C(F)=C\CN)cc1)C(C)C [(E)-4-(4-Amino-2-fluorobut-2-enyloxy)-N,N-diisopropylbenzamide hydrochloride]	< 100 µM
NC/C=C(/F)COc1ccc([N+](=O)[O-])cc1 [(E)-3-Fluoro-4-(4-nitrophenoxy)but-2-en-1-amine hydrochloride]	< 1 µM

target: T3, Mouse SSAO/VAP-1 (Mus musculus, UniProt O70423); assay: Inhibition of amine oxidase activity of mouse SSAO/VAP-1 (3T3-L1 adipocytes, Amplex Red); format: biochemical; settings: 3T3-L1 adipocyte SSAO, 30 min at 37° C. preincubation, 40 μM benzylamine
T3 construct: Adipocytes were used as an SSAO source either as adherent cells or as a homogenate; endogenous in cells; host or cells: 3T3-L1 murine fibroblasts (ATCC) differentiated into adipocytes
T3 sequence (O70423 1-765): T1 sequence (O70423 1-765)
Text: 3T3-L1 Murine fibroblasts were purchased from the American Type Culture Collection (ATCC, Rockville, Md.). Dulbecco's Modified Eagle Medium (DMEM) and fetal calf serum (FCS), antibiotics and Amplex® Red were obtained from Invitrogen (Carlsbad, Calif.). Tissue culture plastics and black clear-bottom 96 well plates were from BD Falcon (Bedford, Mass.). Bicinchoninic acid (BCA) reagent was from Pierce (Rockford, Ill.). All other materials were obtained from Sigma (St. Louis, Mo.).
3T3-L1 Fibroblasts were cultured in DMEM supplemented with 10% heat-inactivated FCS, 2 mM L-glutamine, 100 U/L penicillin and 100 μg/L streptomycin at 37° C. in 5% CO2. For differentiation into adipocytes, fibroblasts were cultured in DMEM with FCS for 1 or 2 days postconfluence, after which the cells were cultured for 3 days in DMEM containing 10% FCS, 350 nM insulin, 0.5 mM 3-isobutyl-1-methylxanthine, 250 nM dexamethasone, and 400 nM biotin and for 3 days in DMEM containing 10% FCS and 350 nM insulin. After differentiation, adipocytes were maintained in DMEM supplemented with 10% FCS. Adipocytes were used for experiments 8 to 11 days after the onset of differentiation, and the medium was renewed 2 or 3 days prior to each experiment. For culturing in black clear-bottom 96-well plates, cells were seeded at a 1:1 cell surface ratio, and differentiation was initiated 4 days postseeding. Cells were used between days 6-12 post-differentiation and between passages 7 and 20. Adipocytes were used as an SSAO source either as adherent cells or as a homogenate.
To prepare homogenate, 10 cm dishes of adipocytes were washed with HES buffer (20 mM HEPES, 1 mM EDTA, 250 mM sucrose, pH 7.4) and scraped in HES buffer containing 10 μg/mL leupeptin, 10 μM pepstatin and 1 mM PMSF. Cells were lysed by passage through a 23 G needle followed by passage through a 27 G needle. The lysate was spun at 500 g for 5 min and fat was removed. Protein concentration of the supernatant was measured using a BCA assay according to the manufacturer's instructions. The homogenate was stored at −80° C. until needed.
(§1) To measure the SSAO activity, adipocyte homogenate (0.5 mg/mL) or adipocytes (adhering cells) containing 0.5 mM pargyline, or purified human SSAO was incubated in 0.1 M sodium phosphate buffer pH 7.4 with varying concentrations of test compounds for 30 min at 37° C. The homogenate was then incubated at 37° C. with 60 μM Amplex® Red, 0.75 U/mL HRP and 40 μM benzylamine (mouse SSAO) or 300 μM benzylamine (human SSAO) and the formation of resorufin was measured (excitation range 530-560 nm and emission at 590 nm) every 10 min in either a Tecan Infinite 200 or a BMG plate reader. The IC50 values were estimated using Graphpad Prism software. The IC50 is an estimation of the concentration of the test compound to inhibit the amine oxidase activity of SSAO/VAP-1 by 50%. The IC50 values of certain invention compounds are included in Table 1.

Structure (SMILES)	IC50
CC(C)N(C(=O)c1ccc(OC/C(F)=C\CN)cc1)C(C)C [(E)-4-(4-Amino-2-fluorobut-2-enyloxy)-N,N-diisopropylbenzamide hydrochloride]	< 100 µM
NC/C=C(/F)COc1ccc([N+](=O)[O-])cc1 [(E)-3-Fluoro-4-(4-nitrophenoxy)but-2-en-1-amine hydrochloride]	< 10 µM

target: T4, Human SSAO/VAP-1 (Homo sapiens, UniProt Q16853); assay: Inhibition of amine oxidase activity of purified human SSAO/VAP-1 (Amplex Red); format: biochemical; settings: purified human SSAO, 30 min at 37° C. preincubation, 300 μM benzylamine
T4 sequence (Q16853 1-763): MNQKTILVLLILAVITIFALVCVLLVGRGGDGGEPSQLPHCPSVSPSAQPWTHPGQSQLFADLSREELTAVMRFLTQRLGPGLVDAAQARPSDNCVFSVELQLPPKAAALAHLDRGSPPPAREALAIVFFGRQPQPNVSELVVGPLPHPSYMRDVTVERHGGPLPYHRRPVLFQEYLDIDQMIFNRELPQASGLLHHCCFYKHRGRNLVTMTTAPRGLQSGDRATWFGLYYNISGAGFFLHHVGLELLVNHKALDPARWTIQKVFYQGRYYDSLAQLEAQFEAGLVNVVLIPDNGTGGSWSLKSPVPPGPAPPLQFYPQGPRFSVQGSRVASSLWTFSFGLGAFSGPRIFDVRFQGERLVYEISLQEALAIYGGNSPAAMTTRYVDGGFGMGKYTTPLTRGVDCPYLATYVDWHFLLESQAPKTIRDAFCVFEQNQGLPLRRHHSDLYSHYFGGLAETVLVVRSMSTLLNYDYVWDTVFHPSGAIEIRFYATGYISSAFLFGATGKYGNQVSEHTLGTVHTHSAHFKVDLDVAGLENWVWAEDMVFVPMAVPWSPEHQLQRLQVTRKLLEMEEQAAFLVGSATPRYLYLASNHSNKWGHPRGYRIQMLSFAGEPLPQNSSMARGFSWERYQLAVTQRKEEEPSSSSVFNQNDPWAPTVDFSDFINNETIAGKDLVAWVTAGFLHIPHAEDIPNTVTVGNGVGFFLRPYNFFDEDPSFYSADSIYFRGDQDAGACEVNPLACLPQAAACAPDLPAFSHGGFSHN
Method: as §1

Structure (SMILES)	IC50
CC(C)N(C(=O)c1ccc(OC/C(F)=C\CN)cc1)C(C)C [(E)-4-(4-Amino-2-fluorobut-2-enyloxy)-N,N-diisopropylbenzamide hydrochloride]	< 1 µM
NC/C=C(/F)COc1ccc([N+](=O)[O-])cc1 [(E)-3-Fluoro-4-(4-nitrophenoxy)but-2-en-1-amine hydrochloride]	< 1 µM
